Patent publication US8268801B2 (priority 2007, dated 2012)

Test system: T cell clone Z4B27
Assay: Antigen presentation assay: IFN-γ release by T cell clone Z4B27
Type: cell-based
Conditions: CD1+ APC preincubated 2 h with sonicated antigen 1-10 μg/mL, 36 h, ELISA; FIG. 1; compared with unsulfated compound f and saturated comparative compound
Description: The release of IFN-γ produced by T cell clone Z4B27 prepared in accordance with the method disclosed in WO 2004/092192 in response to stimulation by the compounds of the invention was measured.
CD1+APC were preincubated at 5×10^4 cells/well for 2 h at 37° C. with sonicated antigen (1-10 μg/mL) before addition of T cells (5×10^4/well in triplicate). After 36 h released TNF-α and IFN-γ were measured using sandwich ELISA kits (Instrumentation Laboratory). Data are expressed as mean ng/mL or pg/mL±SD of triplicates. All experiments were repeated at least 2 times.

## CCCCCCCCCCCCCCCCC(C)CC(C)CC(C)C=C(C)C(=O)OC1C(O)C(CO)OC(OC2OC(CO)C(O)C(O)C2OS(=O)(=O)O)C1OC(=O)CCCCCCCCCCCCCCC [compound e, 2′-O-Sulfate-2-O-hexadecanoyl-3-O-[(4S,6S,8S)-2,4,6,8-tetramethyltetracos-2-enoyl]-α,α′-D-trehalose]
  IFN-γ produced by T cell clone Z4B27 in response to stimulation: better activity
